{
  "source": "patent US20240197738A1",
  "about": "“COMPOUND 7AI IN TREATING EWING SARCOMA BY INHIBITING OTUD7A” (The University of North Carolina at Chapel Hill, priority 2021, published 2024)",
  "key": {"[1]": {"test_system": "A673 cells xenografted tumor", "experiment": "Mouse xenograft assay with A673 cells", "format": "in vivo, nude mice", "protocol": "All mouse work has been reviewed and approved by UNC Institutional Animal Care and Use Committee under IACUC #19-031. Mouse xenograft assays were performed as described previously. Briefly, for mouse xenograft experiments, 2.5×10^6 parental or EWS-FLI1-3A knockin A673 cells were mixed 1:1 with matrigel (Corning 354230) and injected into the flank of indicated female nude mice (NCRNU-M-M from UNC Animal Facility, 4 weeks old). Six days post-injection, when the tumors were established, 2% sucrose with or without 1 μg/mL tetracycline was supplied in water for mice and refreshed every 5 days. Tumor size was measured every two days with a digital caliper, and the tumor volume was determined with the formula: L×W^2×0.52, where L is the longest diameter and W is the shortest diameter. After 22 days, mice were sacrificed, and tumors were dissected and weighed.\nFor 7Ai treatment in nude mice, 2.5×10^6 A673 cells were mixed 1:1 with matrigel (Corning 354230) and injected into the flank of indicated female nude mice (NCRNU-M-M from UNC Animal Facility, 4 weeks old). Seven days post-injection, when the tumors were established, 100 μL 7Ai (25 mg/kg, dissolved in ethanol followed by the addition of sunflower oil and then sonicated at 4° C. in a water bath sonicator until 7Ai was completely dissolved) was given to mice through IP injections and this treatment was repeated every 3 days.\nFreshly dissected xenografted tumors are immediately fixed in 10% formalin for 2 days before transferring to 80% ethanol for one day to prepare tumor blocks. 4-μm sections were cut from each of the tumor blocks by UNC TPL facility and used for IHC study. IHC was performed as described previously. Normal human tissue TMA was purchased from UNC TPL facility. Human Ewing sarcoma tissues were obtained post-mortem and fixed in 10% formalin and embedded in paraffin."}, "[2]": {"test_system": "Ewing sarcoma cell", "experiment": "Ewing sarcoma cell growth in vitro (effective dose)", "format": "cell-based, human", "protocol": "2,000 indicated cells were seeded in each well of 96-well plates for MTT assays to monitor cell viability at indicated time periods using a method adapted from https://www.thermofisher.com/us/en/home/references/protocols/cell-culture/mtt-assay-protocol/vybrant-mtt-cell-proliferation-assay-kit.html. Briefly, at indicated time points post-cell seeding, 10 μL MTT solution was added into each well and incubated in the culture incubator (37° C. with 5% CO2) for 4 hrs. Then medium was removed and 100 μL DMSO was added into each well to dissolve the formazan crystal and incubated for 10 min at 37° C. After thorough mixing, absorbance at 540 nm was measured using the BioTek Cytation 5 Cell Imaging reader."}},
  "data": [
    {"smiles": "Cn1nccc1-c1cc(-c2ccnn2C)n2nc(C(=O)Nc3cnn(Cc4c(Cl)cccc4Cl)c3)cc2n1", "note": "[7Ai]", "values": [
      {"measurement": "tumor volume", "setting": "[1]; A673 xenograft in nude mice, 25 mg/kg IP, vs vehicle (FIG. 5P)", "value": "significantly reduced tumor volume"},
      {"measurement": "tumor growth (dissected tumors, weight)", "setting": "[1]; A673 xenograft in nude mice, 25 mg/kg IP, vs vehicle (FIGS. 5Q-5R)", "value": "significantly reduced"},
      {"measurement": "EWS-FLI1 protein in treated tumors", "setting": "[1]; A673 xenograft tumors, IHC", "value": "reduced EWS-FLI1 protein"},
      {"measurement": "apoptosis in treated tumors (cleaved-caspase3 staining)", "setting": "[1]; A673 xenograft tumors, IHC", "value": "increased apoptosis"},
      {"measurement": "cell proliferation in treated tumors (Ki67 staining)", "setting": "[1]; A673 xenograft tumors, IHC", "value": "reduced"},
      {"measurement": "body weight", "setting": "[1]; nude mice, 25 mg/kg IP, 3-week treatment period", "value": "did not significantly affect body weight"},
      {"measurement": "effective dose in retarding Ewing sarcoma cell growth in vitro", "setting": "[2]", "value": "about 10 μM"}
    ]}
  ]
}
